The source made the active and inactive calls. No cut-off for these calls is given here.
Columns and labels:
[1] = target: Replicase polyprotein 1ab (Severe acute respiratory syndrome coronavirus 2) (UniProt P0DTD1); experiment: Binding affinity to SARS-CoV-2 PLpro assessed as thermal stability by measuring melting temperature of half of the proteins unfolded by differential scanning fluorimetry (DSF) (reference value: 45.79 degC)
SARS-CoV-2 [2] = experiment: Antiviral activity against SARS-CoV-2 infected in African green monkey Vero E6 cells assessed as viral load reduction at 4 uM by measuring viral RNA measured up to 72 hrs by RT-PCR analysis relative to control; type: functional, Severe acute respiratory syndrome coronavirus 2, Vero C1008; design: scale not given: the % may be the effect or the level left
[3] = Cytotoxicity against human HEK293 cells assessed as cell viability measured after 48 hrs by MTT assay; type: toxicity, cell-based
[4] = Cytotoxicity against African green monkey Vero E6 cells assessed as cell viability at 100 uM measured after 48 hrs by MTT assay relative to control; type: toxicity, cell-based, Vero C1008; settings: chlorocebus sabaeus, read-out: Activity
SARS-CoV-2 [5] = experiment: Antiviral activity against SARS-CoV-2 infected in African green monkey Vero E6 cells assessed as viral reduction by measuring viral RNA measured up to 72 hrs by RT-PCR analysis; type: functional, organism-based; settings: Severe acute respiratory syndrome coronavirus 2, SARS-CoV-2, Vero C1008, 72 h
[6] = target: Replicase polyprotein 1ab (Severe acute respiratory syndrome coronavirus 2, UniProt P0DTD1); experiment: Inhibition of recombinant SARS-CoV-2 PLpro using TLKGGI-AMC as substrate assessed as assessed as inhibition constant ny measuring fluorescence signal measured after 15 mins
[7] = target: Replicase polyprotein 1ab (Severe acute respiratory syndrome coronavirus 2) (UniProt P0DTD1); experiment: Inhibition of recombinant SARS-CoV-2 PLpro using TLKGGI-AMC as substrate assessed as assessed as inhibition constant ny measuring fluorescence signal at 10 uM measured after 15 mins relative to control
SARS-CoV-2 [8] = experiment: Anti-viral activity against SARS-CoV-2 BavPat1 infected in Vero E6 cells assessed as inhibition of viral RNA replication; type: functional, organism-based; settings: Severe acute respiratory syndrome coronavirus 2, BavPat1, Vero C1008
[9] = tested on: Severe acute respiratory syndrome coronavirus 2; experiment: Binding affinity to SARS-CoV-2 MPro assessed as thermal stability by measuring melting temperature of half of the proteins unfolded by differential scanning fluorimetry (DSF) (reference value: 52.46 degC)
[10] = target: Chymotrypsin (Homo sapiens) (UniProt Q99895+P17538+P40313+Q6GPI1); experiment: Inhibition of Chymotrypsin (unknown origin) assessed as BSA digestion; type: protein assay
[11] = tested on: Severe acute respiratory syndrome coronavirus 2; experiment: Covalent binding affinity to SARS-CoV-2 MPro assessed as change in molecular weight by Mass spectrometry
[12] = tested on: Severe acute respiratory syndrome coronavirus 2; experiment: Non-covalent binding affinity to SARS-CoV-2 MPro assessed change in molecular weight by Mass spectrometry
[13] = target: Replicase polyprotein 1ab (Severe acute respiratory syndrome coronavirus 2) (UniProt P0DTD1); experiment: Non-covalent inhibition of SARS-CoV-2 PLpro by Lineweaver-Burk Plot analysis
[14] = Acute toxicity in rat assessed as toxicity at 175 to 2000 mg/kg, po measured for 14 days; type: organism-based; settings: in vivo, dose 175-2000 mg/kg, time 14 day
[15] = tested on: Severe acute respiratory syndrome coronavirus 2; experiment: Reversible inhibition of SARS-CoV-2 MPro assessed as enzyme activity by dialysis; design: scale not given: the % may be the effect or the level left
[16] = target: Replicase polyprotein 1ab (Severe acute respiratory syndrome coronavirus 2) (UniProt P0DTD1); experiment: Covalent binding affinity to SARS-CoV-2 PLpro assessed as change in molecular weight by Mass spectrometry
[17] = target: Replicase polyprotein 1ab (Severe acute respiratory syndrome coronavirus 2) (UniProt P0DTD1); experiment: Reversible inhibition of SARS-CoV-2 PLpro assessed as enzyme activity by dialysis; design: scale not given: the % may be the effect or the level left
[18] = Acute toxicity in rat assessed as morphological changes in liver in portal, periportal, and centrilobular regions at 175 to 2000 mg/kg, po measured for 14 days by Hand E staining based analysis; type: organism-based; settings: in vivo, 336 h, dose 175-2000 mg/kg, time 14 day
[19] = tested on: Severe acute respiratory syndrome coronavirus 2; experiment: Non-covalent inhibition of SARS-CoV-2 MPro by Lineweaver-Burk Plot analysis
[20] = Acute toxicity in rat assessed as change in body weight at 175 to 2000 mg/kg, po measured for 14 days; type: organism-based; settings: in vivo, 336 h, dose 175-2000 mg/kg, time 14 day
[21] = target: Replicase polyprotein 1ab (Severe acute respiratory syndrome coronavirus 2) (UniProt P0DTD1); experiment: Non-covalent binding affinity to SARS-CoV-2 PLpro assessed change in molecular weight by Mass spectrometry
SARS-CoV-2 [22] = experiment: Antiviral activity against SARS-CoV-2 infected in African green monkey Vero E6 cells assessed as viral load reduction at 0.125 uM by measuring viral RNA measured up to 72 hrs by RT-PCR analysis relative to control; type: functional; settings: Severe acute respiratory syndrome coronavirus 2, Vero C1008

Molecule `O=C(NNc1nc(-c2ccc(Cl)cc2)cs1)c1ccc(Cl)cc1` has a Tm [1] of 47.5 °C, an Activity (SARS-CoV-2 [2]) of over 80% and an IC50 at 48 h [3] of 14 µM. It also gave a viability at 48 h, 100 µM [4] of 87%, an EC50 (SARS-CoV-2 [5]) of 0.064 µM and a Ki ([6]; read-out: Ki) of 0.5 µM.

With `O=C(NNc1nc(-c2ccc(Br)cc2)cs1)c1ccc(Br)cc1` the inhibition [7] was under 50% and the Ki [6] was “Not_active”.

In the case of `CCOC(=O)c1sc(N/N=C/c2cc3ccccc3nc2Cl)nc1C`, the Ki [6] is reported as “Not_active”.

For `CN(/N=C/c1ccccc1C(=O)O)c1ncc(-c2ccccc2Cl)s1`, the EC50 (SARS-CoV-2 [8]) was 0.014 µM.

For `O=c1c2ccccc2[se]n1-c1ccccc1` [EBSELEN], the Tm [1] was 45.4 °C, the Tm [9] was 52.4 °C and the inhibition [10] was “inactive”. The Activity [11] was “Active” and the Activity [12] was “inactive”.

In the case of `Cc1ccc(-c2csc(NNC(=O)c3ccc(Br)cc3)n2)cc1`, the inhibition [7] is reported as under 50% and the Ki [6] is reported as “Not_active”.

In the case of `CCOC(=O)c1sc(NNC(=O)c2ccc([N+](=O)[O-])cc2)nc1C`, the Tm [1] is reported as 41.5 °C, the Activity (SARS-CoV-2 [2]) is reported as over 80% and the Activity [13] is reported as “Active”. For the same molecule, the Tm [9] was 51 °C, the LD50 at 336 h [14] was over 2000 mg/kg and the Activity [15] was over 90%. The IC50 at 48 h [3] was 25.9 µM, the viability at 48 h, 100 µM [4] was 89.2% and the Activity [16] was “inactive”. The EC50 (SARS-CoV-2 [5]) was 0.097 µM, the inhibition [10] was “inactive” and the Activity [17] was over 90%. For the same molecule, the Activity [18] was “Non-toxic”, the Activity [19] was “Active” and the Activity [20] was “Non-toxic”. The Ki ([6]; read-out: Ki) was 0.45 µM and the Activity [21] was “Active”.

With `O=C(NNc1nc(-c2ccc(Br)cc2)cs1)c1ccc(Cl)cc1` the viability at 48 h, 100 µM [4] was 86.7%, the inhibition [10] was “inactive” and the Ki ([6]; read-out: Ki) was 1.72 µM.

With `CCOC(=O)c1sc(NNC(=O)c2cccc(Br)c2)nc1C` the inhibition [7] was under 50% and the Ki [6] was “Not_active”.

In the case of `CCOC(=O)c1sc(NNC(=O)c2ccc(F)cc2)nc1C`, the inhibition [7] is reported as under 50% and the Ki [6] is reported as “Not_active”.

For `O=C(NNc1nc(-c2ccc(Br)cc2)cs1)c1ccccc1`, the inhibition [7] was under 50% and the Ki [6] was “Not_active”.

For `CCOC(=O)c1sc(NNC(=O)c2ccc(Br)cc2)nc1C`, the Tm [1] was 41.5 °C, the Activity (SARS-CoV-2 [2]) was over 80% and the Activity [13] was “Active”. The Tm [9] was 49.7 °C, the IC50 at 48 h [3] was 219 µM and the viability at 48 h, 100 µM [4] was 86.9%. The EC50 (SARS-CoV-2 [5]) was 0.116 µM, the inhibition [10] was “inactive” and the Activity [19] was “Active”. It also gave a Ki ([6]; read-out: Ki) of 0.5 µM.

Molecule `O=C(NNc1nc(-c2ccc(Cl)cc2)cs1)c1ccc(F)cc1` has a Tm [1] of 47.1 °C, an Activity (SARS-CoV-2 [2]) of over 80% and an IC50 at 48 h [3] of 41.2 µM. The viability at 48 h, 100 µM [4] was 86.5%, the EC50 (SARS-CoV-2 [5]) was 0.041 µM and the Ki ([6]; read-out: Ki) was 0.18 µM.

In the case of `CCOC(=O)c1sc(NNC(=O)c2ccccc2)nc1C`, the inhibition [7] is reported as under 50% and the Ki [6] is reported as “Not_active”.

With `Cc1ccc(C(=O)NNc2nc(-c3ccc(Br)cc3)cs2)cc1` the inhibition [7] was under 50% and the Ki [6] was “Not_active”.

In the case of `Cc1ccc(-c2csc(NNC(=O)c3ccc([N+](=O)[O-])cc3)n2)cc1`, the Tm [1] is reported as 41.4 °C, the Activity (SARS-CoV-2 [2]) is reported as over 80% and the Tm [9] is reported as 52.6 °C. It also gave an IC50 at 48 h [3] of 6.69 µM, a viability at 48 h, 100 µM [4] of 82.3% and an EC50 (SARS-CoV-2 [5]) of 0.126 µM. The inhibition [10] was “inactive” and the Ki ([6]; read-out: Ki) was 1.25 µM.

`CCOC(=O)c1sc(NNC(=O)c2ccc3ccccc3c2)nc1C` gave a Ki ([6]; read-out: Ki) of 0.66 µM.

With `CCOC(=O)c1sc(NNC(=O)/C=C/c2ccccc2)nc1C` the Activity (SARS-CoV-2 [22]) was “inactive”, the Tm [1] was 41.5 °C and the Activity (SARS-CoV-2 [2]) was 56%. For the same molecule, the Activity [13] was “Active”, the Tm [9] was 49.9 °C and the LD50 at 336 h [14] was over 2000 mg/kg. The Activity [15] was over 90%, the IC50 at 48 h [3] was 180 µM and the viability at 48 h, 100 µM [4] was 87.5%. For the same molecule, the Activity [16] was “inactive”, the EC50 (SARS-CoV-2 [5]) was 0.848 µM and the inhibition [10] was “inactive”. The Activity [17] was over 90%, the Activity [18] was “Non-toxic” and the Activity [19] was “Active”. For the same molecule, the Activity [20] was “Non-toxic”, the Ki ([6]; read-out: Ki) was 0.2 µM and the Activity [21] was “Active”.

For `Cc1ccc(C(=O)NNc2nc(-c3ccc(C)cc3)cs2)cc1`, the inhibition [7] was under 50% and the Ki [6] was “Not_active”.

`O=C(NNc1ncc(-c2ccc(Cl)cc2)s1)c1cccc(Cl)c1` showed a Ki ([6]; read-out: Ki) of 4.23 µM.

With `Oc1ccc(/C=N/Nc2nc(-c3ccc(Cl)cc3)cs2)cc1` the Tm [1] was 44.3 °C, the Activity [13] was “Active” and the Tm [9] was 51.4 °C. For the same molecule, the IC50 at 48 h [3] was 194 µM, the viability at 48 h, 100 µM [4] was 91% and the inhibition [10] was “inactive”. The Ki ([6]; read-out: Ki) was 0.29 µM.

From ChEMBL document CHEMBL6177963, “Development of acylhydrazone linked thiazoles as non-covalent dual inhibitors of SARS-CoV-2 proteases” (Eur J Med Chem, 2025)
